Columns and labels:
EP3 receptor [1] = molecular target: T1, EP3 receptor (Homo sapiens, UniProt P43115); assay: [3H]-PGE2 binding assay (EP3 competition binding); conditions: read-out: [3H]-PGE2 Binding Ki
T1 construct: purchased Millipore HTS092M
T1 sequence (P43115 1-390): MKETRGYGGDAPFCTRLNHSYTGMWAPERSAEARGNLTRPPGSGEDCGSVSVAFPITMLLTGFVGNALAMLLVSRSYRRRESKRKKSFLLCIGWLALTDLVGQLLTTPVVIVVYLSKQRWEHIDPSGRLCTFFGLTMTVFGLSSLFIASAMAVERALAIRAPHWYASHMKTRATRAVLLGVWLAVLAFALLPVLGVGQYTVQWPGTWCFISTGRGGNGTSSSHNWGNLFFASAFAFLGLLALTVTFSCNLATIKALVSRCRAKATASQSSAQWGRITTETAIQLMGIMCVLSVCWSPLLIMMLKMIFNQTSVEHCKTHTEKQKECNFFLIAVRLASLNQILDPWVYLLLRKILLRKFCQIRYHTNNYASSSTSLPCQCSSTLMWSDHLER
Experimental: EP3 competition binding was determined using the following materials and experimental conditions:
Beads=Perkin Elmer RPNQ0001
EP3 membrane=Millipore HTS092M
Membrane concentration=2 μg/well
Beads concentration=0.25 mg/well
[3H]-PGE2=2 nM; DMSO—0.1%
Binding buffer=50 mM Tris, 10 mM MgCl2, 1 mM • EDTA, PH 7.4.
The binding buffer was removed from refrigeration (@ 4° C.) and allowed to warm to room temperature. Test compound (@ stock concentration of […] in DMSO) was serial dilutes (1:3) with 100% DMSO using Echo plate. Diluted test compound (30 nL) was dispensed to the 384-well assay plate (using Echo 550 Labcyte System). To each well was then added assay buffer (5 μl) and each well was spun. Beads were weighed out, dissolved in assay buffer to a concentration of 0.25 mg/15 μl. Original membrane was diluted with assay buffer to a concentration of 2 μg/5 μl. […] To each test well were then added diluted [3H]-PGE2 (5 μl), diluted membrane (5 μl), and dissolved beads (15 μl). The plate was equilibrated at room temperature on a plate shaker for 2 hours and then read with a TOPCOUNT scintillation plate reader. Results were analyzed using a Prism program with non-linear regression, one-site fit for Ki.

EP3 receptor [2] = molecular target: T1, EP3 receptor; assay: CHO cell cAMP assay (forskolin and sulprostone stimulated, HTRF); type: cell-based; conditions: CHO cells; sulprostone 700 nM (EC80) and FSK 2 μM (EC70), 37° C. for 30 minutes; read-out: CHO_cAMP IC50
Experimental: For detection, a homogeneous competitive immunoassay (Time Resolved Fluorescence Energy Transfer (hTR-FRET)) was used.
Cells (6K cells per well) were plated in Poly-D-Lysine coated plates the day before the assay was to be run and were incubated at 37° C. […] At the start of the assay the buffer was removed from the cells and replaced with buffer containing test compound(s). Sulprostone at an EC80 dose (700 nM) and FSK at an EC70 dose (2 μM) were added to initiate the reaction (37° C. for 30 minutes).
FSK increases cAMP production and sulprostone decreases cAMP production produced by FSK. In this assay, EP3 antagonists will increase the cAMP to the level of cAMP generated by FSK alone.
Approximately one hour later the plates were read on an Envision (Perkin Elmer) in HTRF mode.
NSP, NSN, NSsample were converted to nM cAMP using the following equation: […]
IC50 values were determined from a […] (Hill equation) of a single 11-point compound dosing.

Structure (SMILES)	Ki (EP3 receptor [1]) [nM]	IC50 (EP3 receptor [2]) [nM]
CC(C)C1(c2ccc(-c3ccc4cccc(F)c4c3)[nH]c2=O)CNC(NC#N)=N1 (stereo not shown) [compound 291, N-(4-(6-(8-fluoronaphthalen-2-yl)-2-oxo-1,2-dihydropyridin-3-yl)-4-isopropyl-4,5-dihydro-1H-imidazol-2-yl)cyanamide]	3	19
CC(C)C(Cc1ccc(-c2ccc3cccc(F)c3c2)[nH]c1=O)c1nnn[nH]1 (stereo not shown) [compound 270, 6-(8-Fluoronaphthalen-2-yl)-3-(3-methyl-2-(1H-tetrazol-5-yl)butyl)pyridin-2(1H)-one]	164	540
CCOC(=O)C(=C1CCCCC1)c1ccc(-c2ccc3ccccc3c2)[nH]c1=O [compound 281, ethyl 2-cyclohexylidene-2-(6-(naphthalen-2-yl)-2-oxo-1,2-dihydropyridin-3-yl)acetate]	37	527
CC(C)C(O)(CC(N)=O)c1ccc(-c2ccc3cccc(F)c3c2)[nH]c1=O (stereo not shown) [compound 255, 3-(6-(8-fluoronaphthalen-2-yl)-2-oxo-1,2-dihydropyridin-3-yl)-3-hydroxy-4-methylpentanamide]	9	115
COc1ccc2cc(-c3ccc(C(C(=O)NCCN(C)C)C(C)C)c(=O)[nH]3)ccc2c1 (stereo not shown) [compound 241]	637	9630
CCS(=O)(=O)N1CCC(c2ccc(-c3ccc4ccccc4c3)[nH]c2=O)CC1 [compound 190, 3-(1-(ethylsulfonyl)piperidin-4-yl)-6-(naphthalen-2-yl)pyridin-2(1H)-one]	32	614
CC1(c2ccc(-c3ccc4ccccc4c3)[nH]c2=O)C(=O)Nc2nccn21 (stereo not shown) [compound 153, 3-methyl-3-(6-(naphthalen-2-yl)-2-oxo-1,2-dihydropyridin-3-yl)-1H-imidazo[1,2-a]imidazol-2(3H)-one]	43	400
CC(C)C(NS(=O)(=O)C1CCCCC1)c1ccc(-c2ccc3cccc(F)c3c2)[nH]c1=O (stereo not shown) [Compound #165, N-(1-(6-(8-fluoronaphthalen-2-yl)-2-oxo-1,2-dihydropyridin-3-yl)-2-methylpropyl)cyclohexanesulfonamide]	31	250
CC(C)S(=O)(=O)N1CCC(c2ccc(-c3ccc4ccccc4c3)[nH]c2=O)CC1 [compound 200, 3-(1-(isopropylsulfonyl)piperidin-4-yl)-6-(naphthalen-2-yl)pyridin-2(1H)-one]	38	1250
CCN1CCOc2ccc(-c3ccc(C(C(C)C)N4CCSCC4)c(=O)[nH]3)cc21 (stereo not shown) [Compound #164, 6-(4-ethyl-3,4-dihydro-2H-benzo[b][1,4]oxazin-6-yl)-3-(2-methyl-1-thiomorpholinopropyl)pyridin-2(1H)-one]	26	485
NC(=O)C1(c2ccc(-c3ccc4ccccc4c3)[nH]c2=O)CC=NN1 (stereo not shown) [compound 247, 5-(6-(naphthalen-2-yl)-2-oxo-1,2-dihydropyridin-3-yl)-4,5-dihydro-1H-pyrazole-5-carboxamide]	771	2400

Continued, values first:

Ki (EP3 receptor [1]) [nM]	IC50 (EP3 receptor [2]) [nM]	Structure (SMILES)
> 10000	> 20000	CCn1ncc2c(F)cc(-c3ccc(C4CN(S(=O)(=O)C(C)C)C4)c(=O)[nH]3)cc21 [compound 214, 6-(1-ethyl-4-fluoro-1H-indazol-6-yl)-3-(1-(isopropylsulfonyl)azetidin-3-yl)pyridin-2(1H)-one]
8	76	CCn1ncc2c(Cl)cc(-c3ccc(C(/C=C4\OC(=O)NC4=O)C(C)C)c(=O)[nH]3)cc21 (stereo not shown) [compound 116, (Z)-5-(2-(6-(4-chloro-1-ethyl-1H-indazol-6-yl)-2-oxo-1,2-dihydropyridin-3-yl)-3-methylbutylidene)oxazolidine-2,4-dione]
8	136	CC(C)C(CC(=O)NCCO)c1ccc(-c2ccc3cccc(F)c3c2)[nH]c1=O (stereo not shown) [compound 258, 3-(6-(8-fluoronaphthalen-2-yl)-2-oxo-1,2-dihydropyridin-3-yl)-N-(2-hydroxyethyl)-4-methyl pentanamide]
162	585	CCn1ncc2c(F)cc(-c3[nH]c(=O)c(C(/C=C4\OC(=O)NC4=O)C(C)C)cc3C)cc21 (stereo not shown) [compound 111, (Z)-5-(2-(6-(1-ethyl-4-fluoro-1H-indazol-6-yl)-5-methyl-2-oxo-1,2-dihydropyridin-3-yl)-3-methylbutylidene)oxazolidine-2,4-dione]
6	56	CC(C)C1(c2ccc(-c3ccc4cccc(F)c4c3)[nH]c2=O)NC(=S)NC1=O (stereo not shown) [compound 294, 6-(8-fluoronaphthalen-2-yl)-3-(4-isopropyl-5-oxo-2-thioxoimidazolidin-4-yl)pyridin-2(1H)-one]
> 10000	> 20000	CC(C)C(Cc1cc(Cl)c(-c2ccc3cccc(F)c3c2)[nH]c1=O)c1noc(=O)[nH]1 (stereo not shown) [Compound #272, 3-(1-(5-chloro-6-(8-fluoronaphthalen-2-yl)-2-oxo-1,2-dihydropyridin-3-yl)-3-methylbutan-2-yl)-1,2,4-oxadiazol-5(4H)-one]
20	220	CC(C)C(C(=O)NC1CCNC1)c1ccc(-c2ccc3cccc(F)c3c2)[nH]c1=O (stereo not shown) [compound 178, 2-(6-(8-fluoronaphthalen-2-yl)-2-oxo-1,2-dihydropyridin-3-yl)-3-methyl-N-(pyrrolidin-3-yl)butanamide]
44	131	CC(C)C(/C=C1\OC(=O)NC1=O)c1ccc(-c2ccc3c(ccn3C)c2)[nH]c1=O (stereo not shown) [compound 118, (Z)-5-(3-methyl-2-(6-(1-methyl-1H-indol-5-yl)-2-oxo-1,2-dihydropyridin-3-yl)butylidene)oxazolidine-2,4-dione]
11	44	CCn1ncc2c(F)cc(-c3ccc(C(CC)(CC)CC4CCNC4=O)c(=O)[nH]3)cc21 (stereo not shown) [compound 40, 6-(1-ethyl-4-fluoro-1H-indazol-6-yl)-3-(3-((2-oxopyrrolidin-3-yl)methyl)pentan-3-yl)pyridin-2(1H)-one]
6	11	CC(C)C(/C=C1/C(=O)NC(=O)N1C)c1ccc(-c2ccc3cccc(F)c3c2)[nH]c1=O (stereo not shown) [Compound #80, 5-(2-(6-(8-fluoronaphthalen-2-yl)-2-oxo-1,2-dihydropyridin-3-yl)-3-methylbutylidene)-1-methylimidazolidine-2,4-dione]
14	1280	CC(C)/C(=C1/OC(=O)NC1=O)c1ccc(-c2ccc3cccc(F)c3c2)[nH]c1=O [Compound #303, (Z)-5-(1-(6-(8-fluoronaphthalen-2-yl)-2-oxo-1,2-dihydropyridin-3-yl)-2-methylpropylidene)oxazolidine-2,4-dione]
54	111	CC(C)/C(Cc1ccc(-c2ccc3cccc(F)c3c2)[nH]c1=O)=C1/OC(=O)NC1=O [Compound #306, (E)-5-(1-(6-(8-fluoronaphthalen-2-yl)-2-oxo-1,2-dihydropyridin-3-yl)-3-methylbutan-2-ylidene)oxazolidine-2,4-dione]
19	530	CCn1ncc2c(F)cc(-c3ccc(C4CCN(S(=O)(=O)C(C)C)CC4)c(=O)[nH]3)cc21 [compound 198, 6-(1-ethyl-4-fluoro-1H-indazol-6-yl)-3-(1-(isopropylsulfonyl)piperidin-4-yl)pyridin-2(1H)-one]
34	249	CC(C)C(c1ccc(-c2ccc3cccc(F)c3c2)[nH]c1=O)N(C)C(N)=O (stereo not shown) [compound 265, 1-(1-(6-(8-fluoronaphthalen-2-yl)-2-oxo-1,2-dihydropyridin-3-yl)-2-methylpropyl)-1-methylurea]
5	20	CC(C)C1(c2ccc(-c3ccc4cccc(F)c4c3)[nH]c2=O)C(=O)Nc2nccn21 (stereo not shown) [compound 155, 3-(6-(8-fluoronaphthalen-2-yl)-2-oxo-1,2-dihydropyridin-3-yl)-3-isopropyl-1H-imidazo[1,2-a]imidazol-2(3H)-one]

Reference: patent publication US10336701B2, “Pyridin-2-one derivatives of formula (II) useful as EP3 receptor antagonists” (Janssen Pharmaceutica NV, priority 2017, dated 2019)
